{
  "source": "patent US20220347188A1",
  "about": "“PROMOTING TISSUE REGENERATION” (FRIEDRICH MIESCHER INSITUTE FOR BIOMEDICAL RESEARCH, priority 2019, published 2022)",
  "system": "intestinal organoids",
  "assay": "intestinal organoids cultured from single cells, image-based phenotypic assay",
  "assay_type": "cell-based",
  "from_the_text": "The present inventors developed a novel image-based phenotypic screening platform in intestinal organoids cultured from single cells to generate a toolbox of compounds shaping the intestinal organoid phenotypic landscape. The compounds were used to infer functional genetic interactions and identify pathways impacting different steps of organoid development. The inventors focused on compounds that improve the regeneration potential of the intestinal epithelium and discovered a novel role for nuclear retinoic acid receptors during organoid damage response and homeostasis both in vitro and in vivo.\nFIG. 1 RXR activity is indispensable for symmetry breaking and cell type balance maintenance Representative images of organoids cultured from single cells in indicated treatment conditions (left), composite maximum intensity projections of confocal z-stacks, nuclei, DAPI, antibody staining for Lysozyme and Aldolase B, scale bar, 50 μm. Violin plots showing distribution of mean Aldolase B staining intensity in control and treated organoids (top right). Box plots inside violin plots show quartile range, whiskers show value interval with excluded outliers, white dots indicate median values, n, number of individual organoids in respective conditions. DMSO, DMSO control, RXRi, 5 μM RXR antagonist. […]",
  "data": [
    {"smiles": "CC1=C(/C=C/C(C)=C/C=C/C(C)=C/C(=O)O)C(C)(C)CCC1", "note": "[atRA, all-trans retinoic acid]", "values": [
      {"measurement": "ALDH1A1-positive as well as RARE-positive region", "setting": "ALDH1A1 antibody staining and RARE reporter gene", "result": "expansion"},
      {"measurement": "absorptive enterocytes in organoids", "setting": "organoids cultured in presence of an RXR agonist and atRA", "result": "increase in absorptive enterocytes"}
    ]}
  ]
}
